Measurements from US4399283A, “Pharmaceutical salts of 4'-(9-acridinylamino)-methanesulfon-m-anisidide” (Warner Lambert Company, priority 1981, dated 1983).

Legend:
[1] = system: mice; details: literature (Cain et al.); cited from earlier work
[2] = format: physicochemical; details: 10 mg/ml, after storing at 5 °C
Description: The salts of th present invention allow one to prepare solutions of m-AMSA without the aid of dimethylacetamide. Depending upon the salt, concentration and temperature,standing may result in certain of the solutions of salts forming gels. However, a salt need only remain in solution for a period long enough for it to be administered to a patient.

| Compound | Activity in treating mammals in studies using mice [1] | Return of gelled solution to fluid state by warming to room temperature and shaking [2] |
| --- | --- | --- |
| COc1cc(NS(C)(=O)=O)ccc1Nc1c2ccccc2nc2ccccc12 [m-AMSA, 4'-(9-acridinylamino)-methanesulfon-m-anisidide] | high degree of activity | – |
| COc1cc(NS(C)(=O)=O)ccc1Nc1c2ccccc2nc2ccccc12 [gluconate, 4'-(9-acridinylamino)methanesulfon-m-anisidide D-gluconate] | – | this could not be achieved |
